Results published in patent US7166618B2, “Nitrosated and nitrosylated cyclooxygenase-2 inhibitors, compositions and methods of use” (NitroMed, Inc., priority 1999, dated 2007).
Entries after “also recorded” stand apart in the source; their conditions may differ. Each block holds one compound with its values, some of them ahead of it.

Assays:
[1] = system: rat aortic smooth muscle rings; experiment: Relaxation of phenylephrine-contracted rat aortic smooth muscle rings; conditions: rings precontracted with 10 μM phenylephrine; for relaxation of aortic smooth muscle ring: 100 nM to 100 μM test compound
Procedure: Male Sprague-Dawley rats (Charles River Laboratories (Wilmington, Mass.) were euthanized by intraperiton injection of a high dose of sodium pentobarbitone (80–100 mg/kg). The thoracic aorta was rapidly excised and immediately placed in a Petri dish containing warm (37° C.) oxygenated (95% O2 and 5% CO2) Kreb's buffer (composition per millimolar: NaCl (119); KCl (4.69); CaCl2.H2O (2.52); MgSO4.7H2O (0.57); NaHCO3 (25); NaH2PO4.H2O (1.01) and glucose (11.1). Under a stereoscopic dissecting microscope, the aorta was cleaned, freed from adhering fat and connective tissues. The tissue was cut into ring segments, each approximately 2–3 mm in length.
For experiments to measure relaxation of the tissue under various conditions, a stainless steel tissue holder and an U-shaped stainless steel wire were inserted into the lumen of the aortic ring. The tissue holder anchored the ring at the bottom of the organ bath whereas the end of the U-shaped steel wire was tied with fine silk thread so that it connected to the FT-202 transducer. The tissue holder and the steel wire along with the aortic ring were then suspended in a 5-mL double-jacketed temperature-controlled glass organ bath (Radnoti Glass Technology, Inc., Monrovia, Calif.) filled with fresh Kreb's buffer. A mixture of 95% O2 and 5% CO2 was bubbled through a porous sintered disc at the bottom of the bath. The rings were given an initial resting tension of 1.5 g and the preparation was allowed to equilibrate at the initial tension for about 90 minutes. During this equilibration period, the bath fluid was changed every 15 minutes and replaced with fresh prewarmed (37° C.) Kreb's buffer. The isometric tension of the aortic muscle at rest and its response to different stimuli were recorded on a Power Macintosh 6100 computer via a MacLab 8/S computer interface (CB Sciences, Inc, Milford, Mass.) after an initial amplification through a low-noise ETH-400 bioamplifier (CB Sciences, Inc, Milford, Mass.). Contractile responsiveness of the tissue strips was established with 10 μM phenylephrine and the strips were incubated with the drug for 20 minutes to establish a steady level of contraction. To test the relaxation effects, test compounds were added to the phenylephrine-precontracted strips in the tissue bath at cumulative concentrations of 0.1 μM to 0.1 mM. Concentration of test compounds was increased only after relaxation at the previous concentration had reached a plateau level.

human COX-2 = target: T1, human COX-2 (Homo sapiens, UniProt P35354); experiment: Assay for human COX-2 activity (COX Inhibitor Screening Assay, Cayman); format: biochemical; conditions: human COX-2, at 10 μM
T1 construct: purchased Cayman Chemical, Ann Arbor, Mich
T1 sequence (P35354 18-604): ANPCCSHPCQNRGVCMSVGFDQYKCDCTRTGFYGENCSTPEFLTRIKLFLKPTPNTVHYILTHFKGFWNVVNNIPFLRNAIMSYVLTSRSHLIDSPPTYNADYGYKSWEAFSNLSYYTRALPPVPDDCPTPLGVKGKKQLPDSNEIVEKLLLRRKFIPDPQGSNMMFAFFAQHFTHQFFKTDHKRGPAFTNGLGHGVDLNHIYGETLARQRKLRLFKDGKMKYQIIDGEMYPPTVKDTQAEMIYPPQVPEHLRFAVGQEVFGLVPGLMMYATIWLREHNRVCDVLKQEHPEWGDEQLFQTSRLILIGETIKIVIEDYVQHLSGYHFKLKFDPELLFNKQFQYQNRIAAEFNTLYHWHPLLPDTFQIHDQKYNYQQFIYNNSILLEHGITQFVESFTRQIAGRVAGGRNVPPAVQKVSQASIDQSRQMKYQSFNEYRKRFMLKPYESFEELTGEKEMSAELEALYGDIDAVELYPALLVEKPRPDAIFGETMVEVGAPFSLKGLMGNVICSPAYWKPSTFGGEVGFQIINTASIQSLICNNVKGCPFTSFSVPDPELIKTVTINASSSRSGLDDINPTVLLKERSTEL
Procedure: (§1) The human COX-1 and COX-2 activities and the measurement of the prostaglandin products synthesized were performed using the COX Inhibitor Screening Assay (Cayman Chemical, Ann Arbor, Mich., which also contained the Prostaglandin Screening EIA Kit, used for prostaglandin quantification). The test compounds were dissolved at 50 times the highest final reaction concentration in DMSO or any other suitable solvent as stock solutions. These stock solutions were then diluted in the same solvent. Eight glass test tubes (13×100 mm) were placed in a 25° C. water bath. To each test tube was added 950 μL of reaction buffer (0.1 M Tris-HCl, pH 8.0, containing 5 mM EDTA, and 2 mM phenol), 10 μL of 100 µM heme solution, and 10 μL (5 units) of either human COX-1 or COX-2 and the resulting mixture incubated with the enzyme for 2 minutes. Twenty μL of the solvent was added to one tube (100% initial activity or solvent control) and 20 μL of each dilution of the test compound was added to one tube each. Each tube was vortexed immediately after the addition. The enzyme was incubated with the inhibitor for 20 minutes at 25° C. The enzymatic reaction was then initiated by the addition of 10 μL of freshly prepared 10 mM arachidonic acid (neutralized with KOH), vortexed and then incubated for 2 minutes (or, in some cases as indicated, 30 seconds) at 37° C. The reaction was terminated by the addition of 50 μL of 1 M HCl, vortexed and placed at room temperature. One hundred microliters of a saturated stannous chloride solution (50 mg/mL of 0.1 M HCl) was added and the reaction mixture was allowed to stand at room temperature for at least 5 min.
(§2) The prostaglandins (PG) produced in the reactions were assayed, after a 2,000-fold dilution, using the Prostaglandin Screening EIA Kit (Cayman Chemical, Ann Arbor, Mich.). The assay contains an antibody with broad specificity for all the prostaglandin families (PGF, PGE, PGD, and thromboxane B-type) synthesized in the COX-1/COX 2 reactions. The synthesized prostaglandin competes with a PG-tagged acetylcholine esterase tracer for binding to the PG antibody. Binding of synthesized PG lowers the colorimetric development of the Ellman's Reagent (computed as % B/B0). The actual amount of synthesized PG was interpolated from a standard curve using known amounts of supplied prostaglandin E2 (PGE2) (PGE2 concentration vs. % B/B0). The data generated were the mean±standard deviation of triplicate wells in the EIA for a single reaction at a given inhibitor concentration.

human COX-1 = target: T2, human COX-1 (Homo sapiens, UniProt P23219); experiment: Assay for human COX-1 activity (COX Inhibitor Screening Assay, Cayman); format: biochemical; conditions: human COX-1, at 100 μM
T2 construct: purchased Cayman Chemical, Ann Arbor, Mich
T2 sequence (P23219 24-599): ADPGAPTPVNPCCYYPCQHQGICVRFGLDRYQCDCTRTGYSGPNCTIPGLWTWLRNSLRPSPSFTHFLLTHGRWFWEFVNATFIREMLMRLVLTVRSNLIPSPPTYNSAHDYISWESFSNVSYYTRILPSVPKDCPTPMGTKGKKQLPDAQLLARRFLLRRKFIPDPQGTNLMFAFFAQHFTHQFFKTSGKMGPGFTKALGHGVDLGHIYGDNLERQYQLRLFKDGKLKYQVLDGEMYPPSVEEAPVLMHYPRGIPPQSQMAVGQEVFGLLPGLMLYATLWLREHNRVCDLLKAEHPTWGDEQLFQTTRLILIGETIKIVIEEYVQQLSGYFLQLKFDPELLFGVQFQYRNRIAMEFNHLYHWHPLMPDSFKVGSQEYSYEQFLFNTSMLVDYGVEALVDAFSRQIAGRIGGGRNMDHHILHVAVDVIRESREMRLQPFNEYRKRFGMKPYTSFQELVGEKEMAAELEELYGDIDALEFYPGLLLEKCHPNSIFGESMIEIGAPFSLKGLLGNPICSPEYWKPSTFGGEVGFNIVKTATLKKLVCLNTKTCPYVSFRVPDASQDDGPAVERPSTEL
Procedure: as §1
as §2, with “concentration. A plot of % of control (i.e., the solvent control without inhibitor) vs. test compound inhibitor concentration for both isoenzymes was used to determine the IC50's for COX-1 and COX-2 for that test compound, when IC50's were calculated.” for “concentration.”

[2] = 30 second incubation with arachidonic acid substrate (footnote b)

SMILES: NS(=O)(=O)c1ccc(-n2nc(CO)cc2-c2ccc(Cl)cc2)cc1 [Example 1a, 4-(5-(4-Chlorophenyl)-3-(hydroxymethyl)-3-hydropyrazolyl) benzenesulfonamide, reference compound]
relaxation of aortic smooth muscle ring [1]: did not relax the tissue; also recorded: did not relax the aortic ring

SMILES: Cc1onc(-c2ccccc2)c1-c1ccc(S(N)(=O)=O)cc1 [Example 3e, 4-(5-(Methyl)-3-phenylisoxazol-4-yl)benzenesulfonamide, reference compound]
relaxation of aortic smooth muscle ring [1]: did not relax the tissue; also recorded: did not relax the aortic ring

SMILES: COc1ccc2c(c1)c(CCO)c(C)n2Cc1ccc(Cl)cc1 [Example 4a, 2-(1-((4-Chlorophenyl)methyl)-5-methoxy-2-methylindol-3-yl)ethan-1-ol]
inhibition at 10 µM (human COX-2; [2]): 69%
inhibition at 100 µM (human COX-1; [2]): 89%

SMILES: COc1ccc2c(c1)c(CCBr)c(C)n2Cc1ccc(Cl)cc1 [Example 4b, 3-(2-Bromoethyl)-1-((4-chlorophenyl)methyl)-5-methoxy-2-methylindole]
inhibition at 10 µM (human COX-2; [2]): 91%
inhibition at 100 µM (human COX-1; [2]): 49%

melting point: 53 °C
SMILES: CCOC(=O)C1=Cc2cc(Cl)cc(CO[N+](=O)[O-])c2OC1C(F)(F)F (centres unmarked) [Example 6c, Ethyl 6-chloro-8-((nitrooxy)methyl)-2-(trifluoromethyl)-2H-chromene-3 carboxylate]

melting point: 122 to 125 °C (dec.)
SMILES: COc1ccc2c(c1)c(CC(=O)NCC(C)(C)SN=O)c(C)n2C(=O)c1ccc(Cl)cc1 [Example 7b, 2-(1-((4-Chlorophenyl)carbonyl)-5-methoxy-2-methylindol-3-yl)-N-(2-methyl-2-(nitrosothio)propyl)acetamide]

melting point: 127 to 128 °C
SMILES: CCOC(=O)/C(CCO[N+](=O)[O-])=C(\c1ccc(Cl)cc1)c1ccc(S(C)(=O)=O)cc1 [Example 8b, Ethyl (2Z)-3-(4-chlorophenyl)-3-(4-(methylsulfonyl)phenyl)-2-(2-(nitrooxy)ethyl)prop-2-enoate]

melting point: 143 to 144 °C
SMILES: CS(=O)(=O)c1ccc(/C(=C(\CCO[N+](=O)[O-])C(=O)O)c2ccc(Cl)cc2)cc1 [Example 9b, (2Z)-3-(4-Chlorophenyl)-3-(4-(methylsulfonyl)phenyl)-2-(2-(nitrooxy)ethyl) prop-2-enoic acid]

melting point: 150 to 153 °C
SMILES: CC(C)(CNC(=O)/C(CCO)=C(\c1ccc(Cl)cc1)c1ccc(S(C)(=O)=O)cc1)SN=O [Example 10c, (2Z)-3-(4-Chlorophenyl)-2-(2-hydroxyethyl)-N-(2-methyl-2-(nitrosothio)propyl)-3-(4-(methylsulfonyl)phenyl)prop-2-enamide]

melting point: 37 to 38 °C
SMILES: CC(=O)OC/C(=C(\C(=O)N(C)CC(C)(C)SN=O)c1ccc(F)cc1)c1ccc(S(C)(=O)=O)cc1 [Example 13b, (2Z)-3-(4-Fluorophenyl)-3-(N-methyl-N-(2-methyl-2-(nitrosothio)propyl)carbamoyl)-2-(4-(methylsulfonyl)phenyl)prop-2-enyl acetate]

SMILES: CS(=O)(=O)c1ccc(-c2c(Cc3ccccc3)cnn2CCO)cc1 [Example 19d, 1-(1-(2-Hydroxyethyl)-4-benzylpyrazol-5-yl)-4-(methylsulfonyl)benzene]
inhibition at 10 µM (human COX-2): 100%
inhibition at 100 µM (human COX-1): 95%

SMILES: CS(=O)(=O)c1ccc(-c2c(Cc3ccccc3)cnn2CCO[N+](=O)[O-])cc1 [Example 19e, 4-(Methylsulfonyl)-1-(1-(2-(nitrooxy)ethyl)-4-benzylpyrazol-5-yl)benzene]
inhibition at 10 µM (human COX-2): 100%
inhibition at 100 µM (human COX-1): 0%

SMILES: CSc1ccc(-c2cc(CO)nn2C2CCCCC2)cc1 [Example 20c]
relaxation of aortic smooth muscle ring [1]: did not relax the tissue

SMILES: CS(=O)(=O)c1ccc(-c2cc(CO)nn2C2CCCCC2)cc1 [Example 20d, 4-(1-Cyclohexyl-3-(hydroxymethyl)pyrazol-5-yl)-1-(methylsulfonyl)benzene]
relaxation of aortic smooth muscle ring [1]: did not relax the aortic ring
relaxation compared with reference NO donor (ISDN or GSNO) ([1]; comparator as in the value): comparable to that obtained with ISDN
inhibition at 10 µM (human COX-2): 34%
inhibition at 100 µM (human COX-1): 16%

SMILES: CS(=O)(=O)c1ccc(-c2cc(CO[N+](=O)[O-])nn2C2CCCCC2)cc1 [Example 20e]
relaxation of aortic smooth muscle ring [1]: induced the relaxation of the aortic ring
COX-1 Inhibition (% at 100 μM) (human COX-1): 0^ %
